Calls of active or inactive are those of the source.
What was measured:
[1] = HEK-293T viability loss after treatment – luminescence, T-cell screen hits, cytotoxicity control for TCR NF-kB inhibitor project, dose response (AID 489026); assay type: functional, cell-based;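 further: cells exposed to compound about 14 hours before the viability readout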
HEK293 [2] = assay: HEK293T cell viability loss, resazurin readout – resazurin fluorescence, cytotoxicity control for NF-kB activator project, SAR follow-up (AID 493251); assay type: functional, cell-based; conditions: Homo sapiens
HEK293 [3] = assay: SAR Analysis of small molecule inhibitors of T-cell specific antigen receptor-induced NF-kB activation in a HEK-293T cell line using a luminescence assay - Set 2. [Related pubchem assays (depositor defined):AID435003, AID435012, AID489026]; assay type: functional, cell-based; conditions: Homo sapiens
[4] = non-specific 3'UTR reporter inhibition in Clone20-Shn3RL – cell-based, Renilla luciferase, cherry-picked, counter-screen for Shn3 inhibitor project, dose response (AID 624133); assay type: functional
cells = assay type: functional, cell-based
[5] = molecular target: Tyrosyl-DNA phosphodiesterase 2 (Homo sapiens, UniProt O95551); assay: potency against TDP2 phosphodiesterase activity – biochemical, epi absorbance, IC50, dose response (AID 743297)
Sequence of Tyrosyl-DNA phosphodiesterase 2 (O95551 whole entry): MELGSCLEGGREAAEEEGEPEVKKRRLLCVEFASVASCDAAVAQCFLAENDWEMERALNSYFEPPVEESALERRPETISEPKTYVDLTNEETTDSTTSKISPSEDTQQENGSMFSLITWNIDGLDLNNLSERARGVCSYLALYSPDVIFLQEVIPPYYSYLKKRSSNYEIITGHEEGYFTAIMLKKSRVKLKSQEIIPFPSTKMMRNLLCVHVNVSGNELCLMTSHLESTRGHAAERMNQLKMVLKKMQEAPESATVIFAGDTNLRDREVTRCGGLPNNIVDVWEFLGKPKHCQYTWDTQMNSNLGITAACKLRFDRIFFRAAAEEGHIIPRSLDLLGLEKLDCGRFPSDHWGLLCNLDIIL

[6] = molecular target: T1, Apoptotic protease-activating factor 1 (Homo sapiens, UniProt O14727); assay type: functional
T1 sequence (O14727 whole entry): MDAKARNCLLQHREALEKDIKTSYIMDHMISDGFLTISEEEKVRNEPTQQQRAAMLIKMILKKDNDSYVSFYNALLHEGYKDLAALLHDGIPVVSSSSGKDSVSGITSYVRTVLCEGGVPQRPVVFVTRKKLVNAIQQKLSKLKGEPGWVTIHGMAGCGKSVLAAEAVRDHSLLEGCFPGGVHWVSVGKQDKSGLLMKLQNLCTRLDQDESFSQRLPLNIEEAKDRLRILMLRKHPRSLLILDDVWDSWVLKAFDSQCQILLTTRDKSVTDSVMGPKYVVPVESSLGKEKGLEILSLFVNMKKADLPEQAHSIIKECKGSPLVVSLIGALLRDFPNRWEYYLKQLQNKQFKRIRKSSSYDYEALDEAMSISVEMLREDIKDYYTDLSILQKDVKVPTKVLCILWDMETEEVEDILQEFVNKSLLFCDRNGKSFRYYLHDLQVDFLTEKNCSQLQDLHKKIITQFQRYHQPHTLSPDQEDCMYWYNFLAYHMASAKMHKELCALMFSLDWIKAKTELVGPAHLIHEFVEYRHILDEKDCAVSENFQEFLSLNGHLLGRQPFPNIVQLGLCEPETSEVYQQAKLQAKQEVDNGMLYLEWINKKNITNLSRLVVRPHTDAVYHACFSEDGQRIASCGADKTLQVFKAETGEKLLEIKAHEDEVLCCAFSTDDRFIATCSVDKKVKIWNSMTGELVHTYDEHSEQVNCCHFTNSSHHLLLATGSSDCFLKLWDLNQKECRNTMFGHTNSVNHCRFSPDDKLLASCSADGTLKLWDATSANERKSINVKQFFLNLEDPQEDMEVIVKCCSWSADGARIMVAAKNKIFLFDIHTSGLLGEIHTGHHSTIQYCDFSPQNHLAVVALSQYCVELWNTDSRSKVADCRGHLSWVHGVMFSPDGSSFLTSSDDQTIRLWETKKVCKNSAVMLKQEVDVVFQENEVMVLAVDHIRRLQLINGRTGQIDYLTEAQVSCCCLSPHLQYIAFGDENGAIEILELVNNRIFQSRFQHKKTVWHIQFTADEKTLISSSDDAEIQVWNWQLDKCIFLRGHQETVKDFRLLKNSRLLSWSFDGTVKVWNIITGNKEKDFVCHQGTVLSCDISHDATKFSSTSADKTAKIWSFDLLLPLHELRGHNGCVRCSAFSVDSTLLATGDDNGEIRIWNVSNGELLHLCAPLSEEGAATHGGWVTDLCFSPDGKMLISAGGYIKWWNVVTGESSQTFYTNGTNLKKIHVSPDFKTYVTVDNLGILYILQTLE

[7] = molecular target: Cystic fibrosis transmembrane conductance regulator/Golgi-associated PDZ and coiled-coil motif-containing protein (Homo sapiens, UniProt P13569+Q9HD26); assay: potency against CAL PDZ-peptide interaction – biochemical, fluorescence polarization, Cerulean-tagged CAL PDZ, cherry-picks, dose response (AID 504773)
Sequence of Cystic fibrosis transmembrane conductance regulator/Golgi-associated PDZ and coiled-coil motif-containing protein (P13569 whole entry, other chains not shown): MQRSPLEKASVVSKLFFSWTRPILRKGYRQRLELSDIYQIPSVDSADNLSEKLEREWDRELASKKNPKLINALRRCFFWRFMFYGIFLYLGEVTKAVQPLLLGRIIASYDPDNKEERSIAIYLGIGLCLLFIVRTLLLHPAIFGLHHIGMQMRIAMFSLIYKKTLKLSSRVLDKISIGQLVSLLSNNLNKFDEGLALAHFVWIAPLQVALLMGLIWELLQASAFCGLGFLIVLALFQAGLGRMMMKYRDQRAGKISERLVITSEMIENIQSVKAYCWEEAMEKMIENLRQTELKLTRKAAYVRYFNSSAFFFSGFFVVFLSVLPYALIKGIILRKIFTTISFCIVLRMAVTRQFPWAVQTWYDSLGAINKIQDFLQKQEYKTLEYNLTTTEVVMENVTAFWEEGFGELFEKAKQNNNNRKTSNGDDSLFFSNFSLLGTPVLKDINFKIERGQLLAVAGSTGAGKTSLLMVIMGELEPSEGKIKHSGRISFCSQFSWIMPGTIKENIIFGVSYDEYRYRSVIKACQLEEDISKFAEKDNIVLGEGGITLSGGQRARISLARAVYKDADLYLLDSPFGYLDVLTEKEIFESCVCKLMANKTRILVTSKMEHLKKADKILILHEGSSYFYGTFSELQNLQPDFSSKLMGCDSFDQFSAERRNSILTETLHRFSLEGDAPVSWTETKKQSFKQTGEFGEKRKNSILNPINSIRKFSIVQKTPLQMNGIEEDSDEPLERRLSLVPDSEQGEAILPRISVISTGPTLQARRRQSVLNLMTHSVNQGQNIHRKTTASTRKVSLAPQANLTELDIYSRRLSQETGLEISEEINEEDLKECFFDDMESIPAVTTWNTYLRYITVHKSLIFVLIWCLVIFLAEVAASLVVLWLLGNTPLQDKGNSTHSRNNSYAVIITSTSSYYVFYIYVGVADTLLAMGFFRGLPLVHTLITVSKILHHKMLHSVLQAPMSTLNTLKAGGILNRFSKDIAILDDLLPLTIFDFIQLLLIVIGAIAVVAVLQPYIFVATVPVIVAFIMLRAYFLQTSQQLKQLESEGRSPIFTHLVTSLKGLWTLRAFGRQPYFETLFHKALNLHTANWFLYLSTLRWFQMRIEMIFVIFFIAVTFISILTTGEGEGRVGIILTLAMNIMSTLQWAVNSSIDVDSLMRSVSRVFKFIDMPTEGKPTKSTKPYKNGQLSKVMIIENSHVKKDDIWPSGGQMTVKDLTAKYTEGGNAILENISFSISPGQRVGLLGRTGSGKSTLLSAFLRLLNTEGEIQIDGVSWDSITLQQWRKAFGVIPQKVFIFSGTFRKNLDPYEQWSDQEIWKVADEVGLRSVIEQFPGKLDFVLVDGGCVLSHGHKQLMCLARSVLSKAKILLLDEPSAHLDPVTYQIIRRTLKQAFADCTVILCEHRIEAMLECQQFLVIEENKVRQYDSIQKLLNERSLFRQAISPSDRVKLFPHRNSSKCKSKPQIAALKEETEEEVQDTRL

[8] = molecular target: SWI/SNF-related matrix-associated actin-dependent regulator of chromatin subfamily A member 2 (Homo sapiens, UniProt P51531); assay: Luminescence-based cell-based high throughput dose response assay to identify activators of the function of SWI/SNF related, matrix associated, actin dependent regulator of chromatin, subfamily a, member 2 (SMARCA2, BRM).; assay type: functional
Sequence of SWI/SNF-related matrix-associated actin-dependent regulator of chromatin subfamily A member 2 (P51531 whole entry): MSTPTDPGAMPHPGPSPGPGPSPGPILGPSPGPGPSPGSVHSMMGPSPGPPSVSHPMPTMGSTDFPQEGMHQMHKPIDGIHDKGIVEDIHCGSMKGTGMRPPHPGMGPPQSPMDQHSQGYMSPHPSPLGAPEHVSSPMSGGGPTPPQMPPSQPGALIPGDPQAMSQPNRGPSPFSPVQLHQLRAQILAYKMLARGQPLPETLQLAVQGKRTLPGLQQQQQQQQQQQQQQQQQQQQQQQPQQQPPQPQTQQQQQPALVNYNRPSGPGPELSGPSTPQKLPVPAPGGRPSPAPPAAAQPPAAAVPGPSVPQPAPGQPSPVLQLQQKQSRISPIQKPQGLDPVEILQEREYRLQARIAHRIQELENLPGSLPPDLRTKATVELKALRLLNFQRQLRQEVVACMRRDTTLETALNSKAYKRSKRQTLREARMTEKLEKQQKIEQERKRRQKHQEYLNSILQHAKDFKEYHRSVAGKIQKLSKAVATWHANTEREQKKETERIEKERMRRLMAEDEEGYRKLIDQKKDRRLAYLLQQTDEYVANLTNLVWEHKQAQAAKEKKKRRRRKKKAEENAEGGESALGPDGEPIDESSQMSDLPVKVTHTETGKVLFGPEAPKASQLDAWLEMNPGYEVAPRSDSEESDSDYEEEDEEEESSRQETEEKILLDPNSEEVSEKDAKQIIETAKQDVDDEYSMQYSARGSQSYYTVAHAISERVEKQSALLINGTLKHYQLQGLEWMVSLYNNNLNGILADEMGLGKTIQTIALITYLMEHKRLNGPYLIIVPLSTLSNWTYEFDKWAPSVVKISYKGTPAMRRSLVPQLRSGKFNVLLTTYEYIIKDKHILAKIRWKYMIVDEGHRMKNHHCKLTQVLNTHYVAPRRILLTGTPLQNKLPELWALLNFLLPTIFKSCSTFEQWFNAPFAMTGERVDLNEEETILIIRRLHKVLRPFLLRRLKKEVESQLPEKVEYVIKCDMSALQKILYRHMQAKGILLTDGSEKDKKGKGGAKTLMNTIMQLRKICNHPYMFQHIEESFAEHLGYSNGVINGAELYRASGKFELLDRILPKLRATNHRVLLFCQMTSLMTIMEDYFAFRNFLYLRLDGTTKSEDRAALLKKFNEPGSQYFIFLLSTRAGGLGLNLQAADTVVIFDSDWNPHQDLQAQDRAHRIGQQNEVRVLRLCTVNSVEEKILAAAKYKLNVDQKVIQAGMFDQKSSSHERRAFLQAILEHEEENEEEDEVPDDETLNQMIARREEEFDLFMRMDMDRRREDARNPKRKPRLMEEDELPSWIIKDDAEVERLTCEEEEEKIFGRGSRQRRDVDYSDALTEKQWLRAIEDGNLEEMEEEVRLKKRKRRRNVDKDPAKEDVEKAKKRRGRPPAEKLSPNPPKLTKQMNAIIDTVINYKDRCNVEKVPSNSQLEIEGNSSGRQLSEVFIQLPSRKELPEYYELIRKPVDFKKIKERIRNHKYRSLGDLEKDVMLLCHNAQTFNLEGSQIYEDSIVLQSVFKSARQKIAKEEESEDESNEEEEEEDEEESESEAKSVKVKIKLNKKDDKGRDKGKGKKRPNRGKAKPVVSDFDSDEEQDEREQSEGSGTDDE

Hexokinase-1 = molecular target: T2, Hexokinase-1 (Homo sapiens, UniProt P19367); assay: hexokinase 1 activity inhibitors, potency – biochemical, set 2, resazurin fluorescence coupled readout, selectivity assay for HKDC1 inhibitor project, SAR follow-up (AID 588356); assay type: functional
T2 sequence (P19367 whole entry): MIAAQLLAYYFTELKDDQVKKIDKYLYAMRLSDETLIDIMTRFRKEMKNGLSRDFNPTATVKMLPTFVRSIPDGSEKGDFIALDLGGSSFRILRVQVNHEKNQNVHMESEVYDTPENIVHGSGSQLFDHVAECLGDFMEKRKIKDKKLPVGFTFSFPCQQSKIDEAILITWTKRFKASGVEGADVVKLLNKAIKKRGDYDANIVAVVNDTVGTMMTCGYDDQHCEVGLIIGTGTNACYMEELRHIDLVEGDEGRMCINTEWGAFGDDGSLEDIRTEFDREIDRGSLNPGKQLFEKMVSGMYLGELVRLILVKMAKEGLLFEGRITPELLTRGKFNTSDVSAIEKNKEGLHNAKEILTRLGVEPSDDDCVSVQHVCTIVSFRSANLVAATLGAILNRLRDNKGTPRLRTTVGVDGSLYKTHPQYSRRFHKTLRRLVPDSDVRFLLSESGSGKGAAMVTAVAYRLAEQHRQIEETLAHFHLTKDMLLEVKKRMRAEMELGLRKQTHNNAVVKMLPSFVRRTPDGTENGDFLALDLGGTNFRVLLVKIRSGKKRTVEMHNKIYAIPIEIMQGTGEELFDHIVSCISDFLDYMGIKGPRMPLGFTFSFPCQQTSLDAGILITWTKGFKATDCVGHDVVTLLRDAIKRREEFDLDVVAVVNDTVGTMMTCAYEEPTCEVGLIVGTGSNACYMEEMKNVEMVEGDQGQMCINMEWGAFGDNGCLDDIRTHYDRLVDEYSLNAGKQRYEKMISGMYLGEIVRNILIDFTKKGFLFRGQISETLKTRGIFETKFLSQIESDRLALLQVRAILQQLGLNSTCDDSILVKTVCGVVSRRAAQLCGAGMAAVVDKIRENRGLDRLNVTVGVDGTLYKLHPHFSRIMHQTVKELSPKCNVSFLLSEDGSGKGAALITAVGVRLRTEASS

CCCCC(=O)NC(c1ccc(Cl)cc1)c1ccc2cccnc2c1O (stereo not given)
IC50 [1]: > 80 µM (inactive)
IC50 (HEK293 [2]): 23.3 µM (inactive)
IC50 (HEK293 [3]): 4.57 µM (active)
AC50 [4]: 0.909 µM (active)
EC50 (cells): 3.81 µM (active)

COc1ccc2noc3c2c1C(=O)c1ccccc1-3
IC50 [5]: 65.7 µM (inactive)
IC50 [6]: 42.5 µM (active)
AC50 [7]: > 500 µM (inactive)
EC50 [8]: > 91.2 µM (inactive)

CCc1ccc2c(c1)C(NC(C)=O)C(=O)N2CCN1CCOCC1 (stereo not given)
IC50 (Hexokinase-1): > 80 µM (inactive)

— ChEMBL document CHEMBL1201862, “PubChem BioAssay data set” (2004)
